# Laboratory results published in patent US12060408B2, “Screening assays, modulators and modulation of activation of Receptor for Advanced Glycation End-products (RAGE)” (Monash University, priority 2017, dated 2024).
# What was measured:
# RAGE = molecular target: T1, RAGE (Homo sapiens, UniProt Q15109); test: Ang II-induced pro-inflammatory gene expression in human aortic endothelial cells (HAEC); type: cell-based; settings: HAECs; 1 μM, 30 minutes before Ang II; FIG. 13G
# T1 construct: RAGE-AT1R—CHO cells expressing both full length RAGE and AT1R; expressed in transfected cells
# T1 sequence (Q15109 23-404): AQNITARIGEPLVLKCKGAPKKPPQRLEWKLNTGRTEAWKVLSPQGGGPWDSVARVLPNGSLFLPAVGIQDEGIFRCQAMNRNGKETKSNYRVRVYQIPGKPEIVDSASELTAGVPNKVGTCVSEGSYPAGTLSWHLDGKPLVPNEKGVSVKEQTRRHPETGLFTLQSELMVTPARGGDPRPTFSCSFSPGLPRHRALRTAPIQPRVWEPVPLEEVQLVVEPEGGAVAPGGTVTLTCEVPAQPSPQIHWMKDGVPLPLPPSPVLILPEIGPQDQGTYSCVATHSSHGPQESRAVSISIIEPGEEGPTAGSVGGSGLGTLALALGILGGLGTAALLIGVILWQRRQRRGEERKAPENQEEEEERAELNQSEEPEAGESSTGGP
# Experimental: To confirm the applicability of inhibition strategies to human tissues, additional experiments were undertaken in primary aortic endothelial cells from humans (Lonza). HAECs were grown in EGM-2 media. […]
# [1] = tested on: RAGE ligand-dependent signalling; settings: Putranto et al., 2013; cited from earlier work
# TIRAP = TIRAP (Homo sapiens, UniProt P58753); settings: Putranto et al., 2013; cited from earlier work
# TIRAP, sequence (P58753 whole entry, species assumed): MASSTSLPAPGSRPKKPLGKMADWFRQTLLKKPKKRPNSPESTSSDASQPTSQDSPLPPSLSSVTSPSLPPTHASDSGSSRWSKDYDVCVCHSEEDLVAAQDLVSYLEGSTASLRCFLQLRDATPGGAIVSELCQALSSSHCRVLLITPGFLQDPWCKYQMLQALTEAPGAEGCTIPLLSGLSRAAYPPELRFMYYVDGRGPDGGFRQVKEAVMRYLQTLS
Ang II-induced induction of pro-inflammatory genes (RAGE),Molecule,attenuation of apoptosis induced by RAGE ligand S100B [1],binding to TIRAP (TIRAP)
inhibitory effect,CCCCC1=NC2(CCCC2)C(=O)N1Cc1ccc(-c2ccccc2-c2nnn[nH]2)cc1 [irbesartan],,
,"S391A-RAGE387-395: fragment of RAGE cytosolic tail of Putranto et al., 2013 (ELNQAEEPE; cytosolic tail peptide; UniProt Q15109 387-395, looked up, variant S391A)",did not attenuate,did not show any appreciable binding
